Consider 38 molecules from patent publication US20090111801A1, “SUBSTITUTED PYRAZINONE DERIVATIVES FOR USE AS A MEDICINE” (Janssen Pharmaceutica N.V., priority 2006, published 2009).

Assay [1] concerns the target T1, hα2C receptor (Homo sapiens, UniProt P18825).
T1 construct: expressed in transfected cells; host or cells: CHO cells, stably transfected; membrane preparation
T1 sequence (P18825 1-462): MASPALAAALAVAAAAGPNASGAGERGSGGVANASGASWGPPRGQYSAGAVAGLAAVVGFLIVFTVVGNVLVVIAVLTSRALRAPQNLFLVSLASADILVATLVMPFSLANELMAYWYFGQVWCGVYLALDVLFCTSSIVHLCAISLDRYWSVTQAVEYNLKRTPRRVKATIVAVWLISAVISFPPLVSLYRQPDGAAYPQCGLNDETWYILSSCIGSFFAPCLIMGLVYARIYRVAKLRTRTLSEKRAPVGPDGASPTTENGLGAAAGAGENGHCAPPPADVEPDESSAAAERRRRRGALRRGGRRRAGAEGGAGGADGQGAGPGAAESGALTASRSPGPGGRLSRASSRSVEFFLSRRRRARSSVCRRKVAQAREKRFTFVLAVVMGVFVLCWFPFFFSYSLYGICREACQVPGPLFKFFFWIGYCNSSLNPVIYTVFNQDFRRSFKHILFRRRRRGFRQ
Nature of the assay: Radioligand binding experiment for α2C-adrenoceptor ([3H]raulwolscine, CHO cell membranes). The settings on record: [3H]raulwolscine binding; for IC50: read-out: h-α2C pIC50 (converted).

In assay [2] the target is T2, hα2A receptor (Homo sapiens, UniProt P08913).
T2 construct: expressed in transfected cells; host or cells: CHO cells, stably transfected; membrane preparation
T2 sequence (P08913 1-465): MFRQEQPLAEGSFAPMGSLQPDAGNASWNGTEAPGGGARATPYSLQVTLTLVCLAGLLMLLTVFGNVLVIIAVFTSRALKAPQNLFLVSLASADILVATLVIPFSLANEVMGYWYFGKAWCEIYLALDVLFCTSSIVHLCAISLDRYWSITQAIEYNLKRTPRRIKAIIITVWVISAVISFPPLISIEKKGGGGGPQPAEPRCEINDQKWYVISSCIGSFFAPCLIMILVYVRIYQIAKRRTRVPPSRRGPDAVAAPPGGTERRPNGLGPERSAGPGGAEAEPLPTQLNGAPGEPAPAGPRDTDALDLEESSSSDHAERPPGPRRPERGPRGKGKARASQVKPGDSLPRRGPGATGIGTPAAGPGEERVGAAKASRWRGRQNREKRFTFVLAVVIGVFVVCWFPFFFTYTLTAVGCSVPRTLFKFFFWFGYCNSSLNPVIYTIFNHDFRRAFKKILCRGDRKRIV
As to the kind of experiment: Radioligand binding experiment for α2A-adrenoceptor ([3H]raulwolscine, CHO cell membranes). The following applies: [3H]raulwolscine binding; for IC50: read-out: h-α2A pIC50 (converted).

Assay [3] has as its target T3, 5HT-Transporter (Homo sapiens, UniProt P31645).
T3 construct: Human platelet membranes (Oceanix Biosciences Corporation, Hanover, Md., USA) were thawed; tissue Oceanix Biosciences Corporation, Hanover, Md., USA; host or cells: human platelet membranes
As to the kind of experiment: Binding experiment for the 5HT-transporter ([3H]paroxetine, human platelet membranes). The following applies: [3H]paroxetine 0.5 nM; for IC50: read-out: h-5HTT pIC50 (converted). An outline of the steps: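 Filter-bound radioactivity from human platelet membranes incubated with [3H]paroxetine and test compound (buffer Tris-HCl 50 mM, 120 mM NaCl, 5 mM KCl) was counted.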

T3 sequence (P31645 whole entry): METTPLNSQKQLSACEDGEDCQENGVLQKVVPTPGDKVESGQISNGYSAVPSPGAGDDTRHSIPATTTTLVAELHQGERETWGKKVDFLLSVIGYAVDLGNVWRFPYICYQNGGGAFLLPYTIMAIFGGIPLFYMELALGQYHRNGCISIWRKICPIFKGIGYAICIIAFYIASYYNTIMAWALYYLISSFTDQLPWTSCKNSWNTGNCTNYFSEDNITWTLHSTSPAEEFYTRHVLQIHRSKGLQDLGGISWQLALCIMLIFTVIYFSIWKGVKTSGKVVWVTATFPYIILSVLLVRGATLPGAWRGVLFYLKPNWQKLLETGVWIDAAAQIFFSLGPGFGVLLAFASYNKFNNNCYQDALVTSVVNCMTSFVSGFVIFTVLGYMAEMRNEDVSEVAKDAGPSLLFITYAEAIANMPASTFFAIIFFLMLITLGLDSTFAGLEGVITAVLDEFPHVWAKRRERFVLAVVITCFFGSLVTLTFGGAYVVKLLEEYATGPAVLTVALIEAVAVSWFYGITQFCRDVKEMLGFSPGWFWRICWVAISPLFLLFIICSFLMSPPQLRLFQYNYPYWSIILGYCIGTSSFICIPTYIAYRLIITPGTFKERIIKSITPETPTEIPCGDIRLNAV

As for `C/C(=C\c1ccccc1)CN1CCC(Nc2nccn(-c3cccc(CN(C)Cc4ccccc4)c3)c2=O)CC1` [1-53], the “h-α2C pIC50” value in assay [1] is reported as 8.6. The “h-α2A pIC50” value in assay [2] came to 8.4. Besides, in assay [3], the “h-5HTT pIC50” value worked out at 6.7.

As to `COc1ccc(Cn2ccnc(NC3CCN(C/C(C)=C/c4ccccc4)CC3)c2=O)cc1` [3-11], the figures for the IC50 in assay [1], in assay [2] and in assay [3] were 31.6 nM, 20 nM and 501 nM, respectively.

On to `C/C(=C\c1ccccc1)CN1CCC(Nc2nccn(-c3cccc(CNCCN(C)C)c3)c2=O)CC1` [1-106], for which the “h-α2C pIC50” value in assay [1] is listed as 8.8. Besides, the “h-α2A pIC50” value in assay [2] came out at 7.9. Moreover, the “h-5HTT pIC50” value in assay [3] was found to be 6.1.

As to `C/C(=C\c1ccccc1)CN1CCC(Nc2nccn(-c3nccs3)c2=O)CC1` [6-5], the IC50 in assay [1] was 7.94 nM; in assay [2], 50.1 nM; in assay [3], 316 nM.

For the molecule `C/C(=C\c1ccccc1)CN1CCC(Nc2nccn(CC(=O)N(CCN3CCCC3)CC3CCCCC3)c2=O)CC1` [1-134], the IC50 was 1.58 nM in assay [1], 12.6 nM in assay [2] and 501 nM in assay [3].

As for `CCCn1ccnc(NC2CCN(C/C(C)=C/c3ccccc3)CC2)c1=O` [7-4], the IC50 in assay [1] was 12.6 nM; in assay [2], 25.1 nM; in assay [3], 631 nM.

Consider `CC(C)(C)OC(=O)NCCCn1ccnc(NC2CCN(C/C=C/c3ccccc3)CC2)c1=O` [16-4], for which the IC50 in assay [1] is 39.8 nM; in assay [2] it was 398 nM; in assay [3], 1260 nM.

Regarding `C/C(=C\c1ccccc1)CN1CCC(N(C)c2nccn(Cc3ccc(CN(C)C)cc3)c2=O)CC1` [15-2], the values for the IC50 in assay [1], in assay [2] and in assay [3] were 3.16 nM, 31.6 nM and 1000 nM, respectively.

With `COC(=O)c1cccc(Cn2ccnc(NC3CCN(C/C(C)=C/c4ccccc4)CC3)c2=O)c1` [3-13], the IC50 in assay [1] was 20 nM; in assay [2], 25.1 nM; in assay [3], 501 nM.

With `C/C(=C\c1ccccc1)CN1CCC(Nc2nccn(Cc3cccc(CN4CCOCC4)c3)c2=O)CC1` [2-45], the IC50 in assay [1] is 10 nM; in assay [2], 50.1 nM; in assay [3], 794 nM.

Regarding `C/C(=C\c1ccccc1)CN1CCC(Nc2nccn(-c3ccc(C(=O)N4CCOCC4)cc3)c2=O)CC1` [2-46], the IC50 in assay [1] was 3.98 nM; in assay [2], 31.6 nM; in assay [3] it was 794 nM.

In the case of `C/C(=C\c1ccccc1)CN1CCC(Nc2nccn(CC(=O)N(CCN3CCCC3)Cc3ccc(F)cc3)c2=O)CC1` [1-136], the results for the IC50 in assay [1], in assay [2] and in assay [3] were 0.316 nM, 10 nM and 631 nM, respectively.

As to `C/C(=C\c1ccccc1)CN1CCC(Nc2nccn(-c3cccc(CNCCCN4CCCC4=O)c3)c2=O)CC1` [1-133], the “h-α2C pIC50” value in assay [1] is listed as 8.7. For the same molecule, the “h-α2A pIC50” value in assay [2] is listed as 7.5. The “h-5HTT pIC50” value in assay [3] stood at 5.6.

With `O=c1c(NC2CCN(C/C=C/c3ccccc3)CC2)nccn1CCN1CCOCC1` [16-7], the IC50 in assay [1] is 398 nM; in assay [2], 3980 nM; in assay [3], more than 10000 nM.

Consider `C/C(=C\c1ccccc1)CN1CCC(Nc2nccn(CC(=O)NCc3ccco3)c2=O)CC1` [1-147], for which the results for the IC50 in assay [1], in assay [2] and in assay [3] were 3.16 nM, 50.1 nM and 3160 nM, respectively.

Consider `C/C(=C\c1ccccc1)CN1CCC(Nc2nccn(CCCN(C)CC(=O)c3ccccc3)c2=O)CC1` [1-84], for which the IC50 in assay [1] was 10 nM; in assay [2], 100 nM; in assay [3] it was 1260 nM.

Take `CNCCCn1ccnc(NC2CCN(C/C(C)=C/c3ccccc3)CC2)c1=O` [1-8]: the values for the IC50 in assay [1], in assay [2] and in assay [3] were 3.16 nM, 50.1 nM and 3980 nM, respectively.

Regarding `C/C(=C\c1ccccc1)CN1CCC(Nc2nccn(CC(=O)N3CCC(O)(c4ccccc4)CC3)c2=O)CC1` [2-14], the IC50 in assay [1] was 7.94 nM; in assay [2] it was 126 nM; in assay [3], 5010 nM.

As to `C/C(=C\c1ccccc1)CN1CCC(Nc2nccn(CC(=O)NC(C)(C)Cc3ccccc3)c2=O)CC1` [1-62], the results for the IC50 in assay [1], in assay [2] and in assay [3] were 3.16 nM, 126 nM and 1000 nM, respectively.

As to `COC(=O)CCNC(=O)Cn1ccnc(NC2CCN(C/C(C)=C/c3ccccc3)CC2)c1=O` [1-94], the IC50 in assay [1] is 3.98 nM; in assay [2], 158 nM; in assay [3] it was 2510 nM.

Take `C/C(=C\c1ccccc1)CN1CCC(Nc2nccn(CC(=O)N(C)CCN(C)Cc3ccccc3)c2=O)CC1` [1-111]: the IC50 in assay [1] was 0.794 nM; in assay [2] it was 50.1 nM; in assay [3], 3980 nM.

Regarding `CCOC(=O)N1CCN(Cc2cccc(-n3ccnc(NC4CCN(C/C(C)=C/c5ccccc5)CC4)c3=O)c2)CC1` [2-36], the IC50 was 10 nM in assay [1], 100 nM in assay [2] and 1580 nM in assay [3].

As for `C/C(=C\c1ccccc1)CN1CCC(Nc2nccn(CC(=O)c3cccc(-c4ccccc4)c3)c2=O)CC1` [5-33], the results for the IC50 in assay [1], in assay [2] and in assay [3] were 100 nM, 79.4 nM and 1260 nM, respectively.

In the case of `CCCNC(=O)c1ccc(-n2ccnc(NC3CCN(C/C(C)=C/c4ccccc4)CC3)c2=O)cc1` [1-13], the IC50 in assay [1] was 7.94 nM; in assay [2], 79.4 nM; in assay [3] it was 398 nM.

As to `C/C(=C\c1ccccc1)CN1CCC(Nc2nccn(-c3ccc(F)cc3)c2=O)CC1` [5-2], the IC50 in assay [1] was 10 nM; in assay [2] it was 31.6 nM; in assay [3] it was 398 nM.

As for `C/C(=C\c1ccccc1)CN1CCC(Nc2nccn(CC(=O)c3ccc(N4CCCC4)cc3)c2=O)CC1` [2-1], the IC50 in assay [1] is 39.8 nM; in assay [2], 31.6 nM; in assay [3], 1260 nM.

`CCN(CC)C(=O)NCc1ccc(-n2ccnc(NC3CCN(C/C(C)=C/c4ccccc4)CC3)c2=O)cc1` [1-117]: in assay [1], the “h-α2C pIC50” value was determined as 8.3. For the same molecule, in assay [2], the “h-α2A pIC50” value was 6.7. In addition, the “h-5HTT pIC50” value in assay [3] came to 6.3.

Consider `C/C(=C\c1ccccc1)CN1CCC(Nc2nccn(CCCNS(C)(=O)=O)c2=O)CC1` [1-155], for which the IC50 was 20 nM in assay [1], 200 nM in assay [2] and 1260 nM in assay [3].

As for `C/C(=C\c1ccccc1)CN1CCC(Nc2nccn(CCCOc3ccccc3)c2=O)CC1` [3-19], the IC50 in assay [1] was 20 nM; in assay [2] it was 63.1 nM; in assay [3] it was 200 nM.

In the case of `COC(=O)CN(C)Cc1cccc(-n2ccnc(NC3CCN(C/C(C)=C/c4ccccc4)CC3)c2=O)c1` [1-98], the “h-α2C pIC50” value in assay [1] is on record as 8.9. The “h-α2A pIC50” value in assay [2] is given as 7.5. Besides, the “h-5HTT pIC50” value in assay [3] worked out at 6.0.

On to `C/C(=C\c1ccccc1)CN1CCC(Nc2nccn(CC(=O)NCCN3CCOCC3)c2=O)CC1` [1-148], for which the IC50 was 7.94 nM in assay [1], 251 nM in assay [2] and 1260 nM in assay [3].

For the molecule `C/C(=C\c1ccccc1)CN1CCC(Nc2nccn(Cc3ccc(CNC(=O)Cc4ccccc4)cc3)c2=O)CC1` [1-82], the IC50 was 25.1 nM in assay [1], 79.4 nM in assay [2] and 251 nM in assay [3].

As to `CSc1ccc(-n2ccnc(NC3CCN(C/C(C)=C/c4ccccc4)CC3)c2=O)cc1` [4-2], the IC50 in assay [1] is 6.31 nM; in assay [2] it was 12.6 nM; in assay [3], 158 nM.

For the molecule `C/C(=C\c1ccccc1)CN1CCC(Nc2nccn(CCCN(Cc3ccccc3)Cc3ccccc3)c2=O)CC1` [1-71], the values for the IC50 in assay [1], in assay [2] and in assay [3] were 5.01 nM, 100 nM and 398 nM, respectively.

Consider `C/C(=C\c1ccccc1)CN1CCC(Nc2nccn(CC(=O)N(CCN3CCCC3)Cc3ccccc3)c2=O)CC1` [1-135], for which the IC50 is 0.794 nM in assay [1], 12.6 nM in assay [2] and 794 nM in assay [3].

Regarding `CCc1ccc(-n2ccnc(NC3CCN(C/C(C)=C/c4ccccc4)CC3)c2=O)cc1` [5-4], the IC50 in assay [1] is 12.6 nM; in assay [2], 39.8 nM; in assay [3] it was 398 nM.

With `C/C(=C\c1ccccc1)CN1CCC(Nc2nccn(-c3cccc(N4CCN(Cc5ccccc5)CC4)c3)c2=O)CC1` [2-31], the IC50 was 6.31 nM in assay [1], 31.6 nM in assay [2] and 398 nM in assay [3].

Turning to `C/C(=C\c1ccccc1)CN1CCC(Nc2nccn(-c3ccc(CN4CCOCC4)cc3)c2=O)CC1` [2-44], the IC50 is 6.31 nM in assay [1], 50.1 nM in assay [2] and 2000 nM in assay [3].
